Results published in patent publication US20120131849A1, “METHOD FOR STORAGE OF SEEDS” (priority 2009, published 2012).

Test system: seeds of Eustoma grandiflorum “F1 Mellow Violet”
Assay: Germination rate test after storage of seeds in oily substance
Format: in vivo
Description: After a predetermined amount of culture soil (Metro-Mix350, manufactured by Scotts) was filled into a cell tray, 100 seeds were sown, and water sprinkling was performed as necessary. With regard to the light conditions, suitable conditions for each seed type were adopted. After sowing, the number of germinated seeds was measured over time, and the number of germinated seeds with respect to the 100 seeds was calculated as a germination rate (%).
The germination rate (%) obtained 10 days after sowing was particularly evaluated as germination vigor (%). The germination vigor is a measure of germination speed or whether germination is uniform, and higher germination vigor values mean faster and more uniform germination. In the case of seeds of a plant that takes long time to germinate, the number of days after sowing was changed as appropriate to obtain the germination vigor.
The germination rate (%) obtained 14 days after sowing was particularly evaluated as the final germination rate (%). In the case of seeds of a plant that takes long time to germinate, the number of days after sowing was changed as appropriate to obtain the final germination rate. […]
First, 0.01 g of seeds of Eustoma grandiflorum “F1 Mellow Violet” was placed in each of 1.5 mL test tubes. Subsequently, 1.5 mL of a medium-chain triglyceride was gently poured into each test tube, which was then capped. The seeds were completely immersed in the medium-chain triglyceride. The test tubes were stored at 4° C. or 25° C. in darkness for 6 months, 18 months, or 36 months, and afterward, the seeds were removed from the test tubes, and a germination rate test was performed. A germination rate test for Eustoma grandiflorum “F1 Mellow Violet” seeds immediately after purchasing was also performed at the same time.

| SMILES | Germination rate (%) 10 days (germination vigor) (Stored at 4° C., 6 months) [%] | Germination rate (%) 14 days (final germination rate) (Stored at 4° C., 6 months) [%] | Germination rate (%) 10 days (germination vigor) (Stored at 4° C., 18 months) [%] | Germination rate (%) 14 days (final germination rate) (Stored at 4° C., 18 months) [%] | Germination rate (%) 10 days (germination vigor) (Stored at 4° C., 36 months) [%] | Germination rate (%) 14 days (final germination rate) (Stored at 4° C., 36 months) [%] | Germination rate (%) 10 days (germination vigor) (Stored at 25° C., 6 months) [%] | Germination rate (%) 14 days (final germination rate) (Stored at 25° C., 6 months) [%] | Germination rate (%) 10 days (germination vigor) (Stored at 25° C., 18 months) [%] | Germination rate (%) 14 days (final germination rate) (Stored at 25° C., 18 months) [%] | Germination rate (%) 10 days (germination vigor) (Stored at 25° C., 36 months) [%] | Germination rate (%) 14 days (final germination rate) (Stored at 25° C., 36 months) [%] |
| --- | --- | --- | --- | --- | --- | --- | --- | --- | --- | --- | --- | --- |
| CCCC(=O)O [Example 10, butanoic acid] | 94 | 94 | 95 | 95 | 95 | 96 | 95 | 96 | 93 | 96 | 92 | 95 |
| CCCCCCCC(=O)O [Example 11, octanoic acid] | 93 | 93 | 96 | 96 | 95 | 95 | 93 | 93 | 91 | 93 | 90 | 93 |
| CCCCCCCCCCCO [Example 17, undecyl alcohol] | 94 | 96 | 94 | 94 | 90 | 92 | 94 | 95 | 95 | 94 | 89 | 92 |
